We go through five compounds from patent publication US20250346643A1, “TROPOMYOSIN KINASE RECEPTOR (TRK) LIGANDS AS THERAPEUTICS TO SUPPORT LIVER REGENERATION” (Vanderbilt University, priority 2024, published 2025).

Assay [1] concerns primary mouse hepatocytes. Put plainly: Cell proliferation assay (CellTiter-Glo) in primary mouse hepatocytes. In kind it is cell-based. As to the method: Primary hepatocyte isolation. Pdgfrb-GFP-negative or H-2Kd mice older than 4 months were anesthetized and cannulated via the portal vein. Livers were perfused with about 25 ml of pre-warmed Liver Perfusion Medium (Gibco, Waltham, MA; 17707-038) followed by about 50 ml Liver Digestion Medium (Gibco, Waltham, MA; 17703-034). Liver capsule was gently teased apart with tweezers and hepatocytes released. Cells were taken up in Hepatocyte Wash Buffer (Gibco, Waltham, MA; 17704-024) and filtered through 100 μm mesh. Cells were then centrifuged for 2 min at 100 g, 4° C. and cell pellet resuspended in ice cold 10 ml DMEM (Gibco, Waltham, MA; 11885-084)/5% FBS. 10 ml of ice cold 100% Percoll®/PBS (GE HealthCare, Chicago, IL; GE17-0891-01) was added for gradient purification and cells centrifuged for 10 min at 200 g, 4° C. Cell pellet was resuspended with 20 ml DMEM/5% FBS and centrifuged for 2 min at 100 g, 4° C. 1-2×10^3 hepatocytes were plated on collagen-coated 96-well plates in DMEM/5% FBS/Pen/Strep. Rat tail collagen I (Gibco, Waltham, MA; A1048301) was used for coating. Cell culture media was changed 3 hours after plating with either serum-free William's E media (Gibco, Waltham, MA) containing Pen/Strep (Gibco, Waltham, MA) or DMEM/5% FBS/Pen/Strep. NTF3 (STEMCELL technologies, Vancouver, Canada) was added 1 day after plating at a final concentration of 20 ng/ml and primary hepatocytes cultured for 3 days with NTF3 until analysis.
Cell proliferation assays. Primary mouse hepatocytes, HepG2 or AML 12 cells were grown in opaque-walled 96-well plates. NTF3 (final concentration 20 ng/ml) (STEMCELL Technologies, Vancouver, Canada; cat. 78074) and/or Loxo-195 (final concentration 5 nM) (Selleckchem, Houston, TX; S8636) were added into complete growth media without L-glutamine. Primary mouse hepatocytes were also grown in serum-free William's E media without supplements. Cells were analyzed by CellTiter-Glo® (Promega G7570, Madison, WI) which detects the number of viable cells on day 0 to day 5 by on detection systems GloMax® (Promega) or Bioteck Synergy H1 (Agilent, Santa Clara, CA). Mouse recombinant HGF (Abcam, Cambridge, UK; ab281797) was added to cell culture media at a final concentration 5 ng/ml. TRKB inhibitor ANA-12 (Selleckchem, Houston, TX; S7745) was diluted in DMSO (10 mM stock solution) and added to cell culture media at a final concentration of 10 nM.
Primary mouse hepatocyte isolation. Mice were anesthetized and cannulated via the portal vein. Livers were perfused with ˜25 ml of prewarmed liver perfusion medium (Gibco, Waltham, MA; 17707-038) followed by ˜50 ml of liver digestion medium (Gibco, Waltham, MA; 17703-034). The liver capsule was gently teased apart with tweezers, and hepatocytes were released. Cells were taken up in Hepatocyte Wash Buffer (Gibco, Waltham, MA; 17704-024) and filtered through a 100-μm mesh. Cells were then centrifuged for 2 min at 100 g, 4° C., and the cell pellet was resuspended in 10 ml of ice-cold DMEM (Gibco, Waltham, MA; 11885-084)/5% FBS. […] of ice-cold 100% Percoll®/PBS (GE HealthCare, Chicago, IL; GE17-0891-01) were added for gradient purification, and cells were centrifuged for 10 min at 200 g, 4° C. The cell pellet was resuspended with 20 ml of DMEM/5% FBS and centrifuged for 2 min at 100 g, 4° C. A total of 1×10^3 to 2×10^3 hepatocytes were plated on collagen-coated 96-well plates in DMEM/5% FBS/Pen/Strep. Rat tail collagen I (Gibco, Waltham, MA; A1048301) was used for coating. Cell culture media were changed 3 hours after plating with either serum-free William's E media (Gibco, Waltham, MA) containing Pen/Strep (Gibco, Waltham, MA) or DMEM/5% FBS/Pen/Strep. […]
On the technique in general: In ATP-based viability assays light output follows the ATP content of the culture.

The test system of another assay is mTORC1. Put plainly: Immunoblotting of HDOs for P-S6RP and P-P70S6K (mTORC1 activation). The class given is cell-based, human. The protocol: (§1) Human ductal organoids. The normal human liver tissue was obtained through the Cooperative Human Tissue Network (CHTN) at Vanderbilt University Medical Center. The liver was cut into very small pieces in liver digestion medium (Gibco, Waltham, MA; 17703-034). The cell suspension was filtered through a 100-μm cell strainer. The flow through was then centrifuged for 2 min at 100 g, 4° C., and the cell pellet resuspended in ice-cold DMEM (Gibco, Waltham, MA; 11885-084, supplemented by 5% FBS) and centrifuged for 2 min at 300 g. The cell pellet was gently resuspended in Matrigel® (Corning, Corning, NY; 356231) and a […] dome plated in a 24-well plate. The plate was incubated for 10-15 min at 37° C. After solidifying, complete HepatiCult™ Organoid Initiation Medium (OIM) (STEMCELL Technologies, Vancouver, Canada; 100-0384) was added. For passaging, the Matrigel dome was dissociated using TrypLE (Thermo Fisher Scientific, Waltham, MA; 12604013) and incubated at 37° C. for 5 mins. Organoids were washed by resuspending in advanced DMEM/F12 and consecutive resuspension of the organoid pellet. Organoids were resuspended at a 1:10 dilution in Matrigel® and cultured in complete HepatiCult™ Organoid Growth Medium (OGM) (STEMCELL Technologies, Vancouver, Canada; 100-0385) for organoid expansion. For hepatocytic differentiation of hepatic ductal organoids, culture medium was changed to complete HepatiCult™ Organoid Differentiation Medium (ODM) (STEMCELL Technologies, 100-0383) 4 days after passaging. Vehicle, NTF3, BDNF, HGF (20 ng/ml final concentration) or Taletrectinib (Fisher Scientific, Waltham, MA; 502030245, final concentration 10 nM) or torin2 (Fisher Scientific, Waltham, MA; s2817, final concentration 25 nM) were diluted in William's E (without L-glutamine) and added to organoids.
Immunoblotting. HDOs and mpPHH were homogenized in RIPA buffer containing proteinase inhibitors (Roche, Basel, Switzerland; cOmplete™ Mini protease inhibitor, 2 tab/10 ml buffer) and 1×HALT phosphatase inhibitors (Thermo Fisher Scientific, Waltham, MA; catalog no. 78428). Lysates were sonicated and then centrifuged for 10 min at 18,800 g. Protein concentration of supernatants was determined by Direct Detect Spectrophotometer (MilliporeSigma, Burlington, MA). HDOs were treated with growth factors as described above. Lyophilized NTF3 was solubilized with sterile-filtered PBS supplemented with 0.1% BSA, aliquoted, and stored at −80° C. until use. […] HDOs and mpPHH were collected on ice in PBS and centrifuged for 10 s, and the cell pellet was homogenized in RIPA buffer containing inhibitors (Roche, Basel, Switzerland; cOmplete™ Mini protease inhibitor, 1×HALT phosphatase inhibitors, Thermo Fisher Scientific, Waltham, MA; catalog no. 78428). Cell lysates were sonicated and centrifuged for 10 min at 18,800 g. The protein concentration of supernatants was determined by a Direct Detect® spectrophotometer (MilliporeSigma, Burlington, MA). For immunoblot analysis, 10 to 50 μg of protein diluted in […] sample buffer (Invitrogen, Waltham, MA) were analyzed per SDS-polyacrylamide gel electrophoresis (NuPAGE™, Invitrogen, Waltham, MA) using Mops buffer or MES buffer (Invitrogen, Waltham, MA). […] Semi-quantitative band densitometry was performed using ImageJ software (version 1.53).

For assay [2], the system named is hepatocytic differentiated human ductal organoids. Put plainly: EdU incorporation in hepatocytic differentiated human ductal organoids (HDO). The class given is cell-based. Conditions: co-incubation with taletrectinib 10 nM (FIG. 19C-D). As to the method:
as §1
EdU incorporation and imaging in HDO and mpPHH. A chamber slide was pre-chilled on ice and coated with Matrigel®. Chamber slide was then incubated for 3 min at 37° C. to solidify and organoids plated in 0.02% Matrigel®/complete media into coated chamber slides. Organoids were grown in complete organoid growth media (OGM) for approximately 4 days followed by incubation in organoid differentiation media (ODM) for another 4 days. Organoids were changed to William's E medium 1 day prior to experiment. Vehicle or NTF3, BDNF, HGF (20 ng/ml final concentration each) or Taletrectinib (Fisher Scientific, Waltham, MA; 502030245, final concentration 10 nM) were diluted in William's E (without L-glutamine) and added to organoids. CLICK-iT™ EdU (EdU final concentration […] incubated together with the vehicle, NTF3, BDNF or HGF). After 6 hours, organoids were fixed with 4% paraformaldehyde and permeabilized with 0.5% Triton-X 100. Further processing was performed according to CLICK-ITT EdU manufacturer's instructions. mpPHHs were seeded on collagen coated chamber slides and grown in complete hepatocyte medium (Lonza, Basel, Switzerland). Prior to EdU incorporation assays, mpPHHs were cultured in William's E medium. Vehicle or NTF3, BDNF, HGF (20 ng/ml final concentration each) or Taletrectinib (Fisher Scientific, Waltham, MA; 502030245, final concentration 10 nM) were diluted in William's E (without L-glutamine) and added to mpPHHs. Organoids were imaged in PBS in chamber slides, mpHHs were mounted with fluoromount. Five to fifteen images of random high-power fields were obtained per experiment per treatment and EdU+/Hoechst 33342+ nuclei versus all Hoechst 33342+ nuclei quantified.

Turning to `O=C(Nc1ccccc1C(=O)NC1CCCCNC1=O)c1cc2ccccc2s1` (stereo not drawn) [ANA-12, reference compound], the “inhibition of NTF3-induced cell proliferation” value in assay [1] (ANA-12 10 nM, NTF3 20 ng/ml, serum-free medium (FIG. 12D)) is recorded as “significantly inhibited”. The “effect on BDNF-induced proliferation” value in assay [1] (co-incubation with ANA-12 10 nM (FIG. 16C)) is on record as “inhibited”.
For the compound `CC(=O)NCCc1c[nH]c2ccc(O)cc12` [NAS, N-Acetyl-5-hydroxytryptamine, reference compound], in assay [1] (BDNF and HGF 20 ng/ml, NAS 500 nM (FIG. 16E)), the “cell proliferation, comparison of NTF3, HGF, BDNF and NAS” value was “induce proliferation to a similar extent”.
On to `NC(=O)CC[C@H](N)C(=O)O` [glutamine], for which the “phosphorylated S6rp (Ser240/244)” value in the assay on mTORC1 (HDOs cultured in glutamine free media, coincubation (FIG. 18G), Torin2 25 nM) is recorded as “decreased phosphorylated S6rp”.
For the compound `C[C@@H](N)COc1ccc(-c2cnc3ccc(N[C@H](C)c4cccc(F)c4)nn23)cc1` [taletrectinib, reference compound], in assay [2], the “effect on NTF3-induced increase of EdU+ cells” value was “decreased”.
In the case of insulin: a known activator of mTORC1, the “phosphorylation of P-p70S6 kinase and P-S6 ribosomal protein (S6RP)” value in the assay on mTORC1 (HDO, serum free and glutamine free William's E medium (FIG. 20A-C)) is “significantly increased phosphorylation”.
